Values joined by “and” are separate entries in the source; they are usually repeats but may differ in a detail not shown here. Identical values can stand only once.
How the values were obtained:
[1] = REGOMUNE phase II study: safety (adverse events, CTCAE v5.0); set-up: species or system human; conditions: in vivo
Method: After an assessment of eligibility, patients received Regorafenib 160 mg per day on a three weeks on/one week off schedule, in cycles of 28 days. Avelumab treatment began on Day 15 cycle 1, by intravenous infusion once every 2 weeks. Treatment was continued until disease progression, unacceptable toxicity, investigator's decision to discontinue, or withdrawal of patient consent. Participants were monitored for adverse events at every follow-up assessment. Adverse events were graded according to National Cancer Institute Common Terminology Criteria for Adverse Events version 5.0. Laboratory assessments were done at baseline, and every 2 weeks afterwards until treatment discontinuation. Regorafenib dose modifications to manage adverse events were allowed (see study protocol). The dose of Regorafenib could be reduced to 120 mg and then to 80 mg. […] Tumor lesions were assessed according to RECIST version 1.1 at baseline (within 4 weeks prior to Cycle 1 Day 1), and every 8 weeks until disease progression or the start of another treatment. […]
All enrolled patients who initiated the study treatment were included in the safety analysis. […] The median follow-up was calculated using the reverse Kaplan-Meier method. […] Quantitative variables were described using the median and range, and qualitative variables were described using frequency, percentage and 95% confidence interval (binomial law). […]

[2] = test system: metastatic colorectal cancer; conditions: cited from earlier work
[3] = test system: immunosuppressive macrophage infiltration; conditions: preclinical model of metastatic colorectal cancer; cited from earlier work
[4] = Regorafenib single agent in addition to supportive care, pivotal study

| Molecule | Patients with dose reduction or temporary treatment discontinuation because of a drug-related adverse event [1] [patients] | Patients with dose reduction or temporary treatment discontinuation because of a drug-related adverse event ([1]; human) [patients] | Patients with grade 3 or 4 treatment-related adverse events that needed some dose reduction ([2]; CORRECT (as well as CONCUR) study, single agent) | Median overall survival [2, 4] [months] | Median progression-free survival [2, 4] | Objective response rate ([2]; pivotal randomized study) [%] | Effect on immunosuppressive macrophage infiltration [3] |
| --- | --- | --- | --- | --- | --- | --- | --- |
| Avelumab | 17 | – | – | – | – | – | – |
| CNC(=O)c1cc(Oc2ccc(NC(=O)Nc3ccc(Cl)c(C(F)(F)F)c3)c(F)c2)ccn1 [Regorafenib] | – | 41 | up to 54% | 6.4 | 1.9 months and 2 months | 1 | reduce immunosuppressive macrophage infiltration |

— patent publication US20230213520A1, “IN VITRO METHOD FOR THE PROGNOSIS OF DISEASE PROGRESSION IN A PATIENT THAT SUFFERS FROM OR IS AT RISK OF DEVELOPING A SOLID TUMOR” (Bergonié Institute, priority 2020, published 2023)
